The values below come from patent US6780870B2, “Pyrimidine derivatives as selective inhibitors of COX-2” (SmithKline Beecham Corporation, priority 2000, dated 2004).

Where only a bound is given, the exact number is not on record here.

For assay [1], the target named is T1, human COX-1 (Homo sapiens, UniProt P23219).
T1 construct: expressed in transfected cells
The assay is described as follows: Inhibition of PGE2 release in COS cells stably transfected with human COX-1. Conditions: COS cells stably transfected with cDNA for human COX-1; PGE2 release by enzyme immunoassay; 1 hour preincubation; 30 μM arachidonic acid, 15 minutes. In kind it is cell-based. The procedure:
(§1) Inhibitory activity against human COX-1 and COX-2 was assessed in COS cells which had been stably transfected with cDNA for human COX-1 and human COX-2. 24 Hours prior to experiment, COS cells were transferred from the 175 cm^2 flasks in which they were grown, onto 24-well cell culture plates using the following procedure. The incubation medium (Dulbecco's modified eagles medium (DMEM) supplemented with heat-inactivated foetal calf serum (10% v/v), penicillin (100 IU/ml), streptomycin (100 μg/ml) and geneticin (600 μg/ml)) was removed from a flask of confluent cells (1 flask at confluency contains approximately 1×10^7 cells). 10 ml of phosphate buffered saline (PBS) was added to the flask to wash the cells. Having discarded the PBS, cells were then rinsed in 10 ml trypsin for 20 seconds, after which the trypsin was removed and the flask placed in an incubator (37°) for 1-2 minutes until cells became detached from the flask. The flask was then removed from the incubator and cells resuspended in 10 ml of fresh incubation medium. The contents of the flask was transferred to a 250 ml sterile container and the volume of incubation medium subsequently made up to 100 ml. 1 ml cell suspension was pipetted into each well of 4×24-well cell culture plates. The plates were then placed in an incubator (37° C., 95% air/5% CO2) overnight. If more than 1 flask of cells were required, the cells from the individual flasks were combined before being dispensed into the 24-well plates.
(§2) Following the overnight incubation, the incubation medium was completely removed from the 24-well cell culture plates and replaced with 250 μl fresh DMEM (37° C.). The test compounds were made up to 250× the required test concentration in DMSO and were added to the wells in a volume of 1 μl. Plates were then mixed gently by swirling and then placed in an incubator for 1 hour (37° C., 95% air/5% CO2). […] Plates were then incubated for a further 15 minutes, after which the incubation medium was removed from each well of the plates and stored at −20° C., prior to determination of prostaglandin E2 (PGE2) levels using enzyme immunoassay. […] The selectivity ratio of inhibition of COX-1 versus COX-2 was calculated by comparing respective IC50 values.

In assay [2] the target is T2, human COX-2 (Homo sapiens, UniProt P35354).
T2 construct: expressed in transfected cells
T2 sequence (P35354 18-604): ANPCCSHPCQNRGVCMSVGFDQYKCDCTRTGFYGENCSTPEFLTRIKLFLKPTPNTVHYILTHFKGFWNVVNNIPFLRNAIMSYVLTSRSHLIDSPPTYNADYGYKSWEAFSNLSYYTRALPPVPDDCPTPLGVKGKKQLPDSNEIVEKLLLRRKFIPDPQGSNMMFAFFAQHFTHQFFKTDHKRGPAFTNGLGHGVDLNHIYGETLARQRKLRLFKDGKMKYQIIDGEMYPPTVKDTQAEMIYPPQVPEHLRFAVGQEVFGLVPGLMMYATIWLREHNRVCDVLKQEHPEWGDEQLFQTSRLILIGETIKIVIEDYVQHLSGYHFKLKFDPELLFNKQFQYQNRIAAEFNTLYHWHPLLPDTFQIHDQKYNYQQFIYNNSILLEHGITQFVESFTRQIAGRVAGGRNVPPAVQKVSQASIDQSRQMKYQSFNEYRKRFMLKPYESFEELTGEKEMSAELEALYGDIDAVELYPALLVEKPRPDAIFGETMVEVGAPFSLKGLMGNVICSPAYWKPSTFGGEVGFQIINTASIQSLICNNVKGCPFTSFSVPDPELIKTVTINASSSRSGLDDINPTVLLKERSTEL
The assay is described as follows: Inhibition of PGE2 release in COS cells stably transfected with human COX-2. It is filed as cell-based. The settings on record: COS cells stably transfected with cDNA for human COX-2; PGE2 release by enzyme immunoassay; 1 hour preincubation; 30 μM arachidonic acid, 15 minutes. The procedure: as §1, §2

T1 sequence (P23219 24-599): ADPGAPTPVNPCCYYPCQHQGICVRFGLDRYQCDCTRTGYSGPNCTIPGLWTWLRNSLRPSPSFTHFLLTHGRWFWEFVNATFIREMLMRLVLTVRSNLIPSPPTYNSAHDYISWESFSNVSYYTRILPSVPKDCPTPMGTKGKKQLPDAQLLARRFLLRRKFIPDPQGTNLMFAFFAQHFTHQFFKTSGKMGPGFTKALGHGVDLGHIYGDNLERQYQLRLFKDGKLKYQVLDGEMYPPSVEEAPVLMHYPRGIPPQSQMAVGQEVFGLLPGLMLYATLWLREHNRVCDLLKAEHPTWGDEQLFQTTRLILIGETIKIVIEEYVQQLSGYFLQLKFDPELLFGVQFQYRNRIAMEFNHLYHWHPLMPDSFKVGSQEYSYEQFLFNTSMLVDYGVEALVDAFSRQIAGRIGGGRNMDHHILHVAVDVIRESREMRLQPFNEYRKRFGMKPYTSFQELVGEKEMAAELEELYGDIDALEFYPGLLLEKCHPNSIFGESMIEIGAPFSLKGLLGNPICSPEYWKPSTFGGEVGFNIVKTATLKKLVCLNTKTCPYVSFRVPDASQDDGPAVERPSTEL

For `CS(=O)(=O)c1ccc(-c2cc(C(F)(F)F)nc(NCc3ccccc3)n2)cc1` [Example 4, 4-[4-(Methylsulfonyl)phenyl]-N-(phenylmethyl)-6-(trifluoromethyl)-2-pyrimidinamine], the IC50 is over 100000 nM in assay [1] and 0.25 nM in assay [2].
Taken in the same sequence, the figures for `CS(=O)(=O)c1ccc(-c2cc(C(F)(F)F)nc(NCc3cccnc3)n2)cc1` [Example 2, 4-[4-(Methylsulfonyl)phenyl]-N-(pyridin-3-ylmethyl)-6-(trifluoromethyl)pyrimidin-2-amine] were over 100000 nM and 10.8 nM.
Taken in the same sequence, the figures for `CS(=O)(=O)c1ccc(-c2cc(C(F)(F)F)nc(NCc3ccccn3)n2)cc1` [Example 3, 4-[4-(Methylsulfonyl)phenyl]-N-(pyridin-2-ylmethyl)-6-(trifluoromethyl)pyrimidin-2-amine] were over 100000 nM and 2.5 nM.
Taken in the same sequence, the figures for `COc1ccc(CNc2nc(-c3ccc(S(C)(=O)=O)cc3)cc(C(F)(F)F)n2)cc1` [Example 9, N-(4-methoxybenzyl)-4-[4-(methylsulfonyl)phenyl]-6-(trifluoromethyl)pyrimidin-2-amine] were over 100000 nM and 34 nM.
Turning to `CS(=O)(=O)c1ccc(-c2cc(C(F)(F)F)nc(NCc3ccncc3)n2)cc1` [Example 1, 4-[4-(Methylsulfonyl)phenyl]-N-(pyridin-4-ylmethyl)-6-(trifluoromethyl)pyrimidin-2-amine], the IC50 in assay [1] is over 100000 nM; in assay [2], 1.3 nM.
